Consider one compound from ChEMBL document CHEMBL1212831, “Discovery of N-[(2S)-5-(6-fluoro-3-pyridinyl)-2,3-dihydro-1H-inden-2-yl]-2-propanesulfonamide, a novel clinical AMPA receptor positive modulator” (J Med Chem, 2010).

A short description of data set [1]: Tmax in Sprague-Dawley rat at 3 mg/kg, po. Type of data set: ADME, organism-based. Details: dose 3 mg/kg, route oral; call rule not given here. The settings on record: in vivo.
A further data set concerns Cynomolgus monkey. As to the kind of experiment: Liver blood flow in cynomolgus monkey at 0.125 mg/kg, iv and 0.5 mg/kg, po. Type of data set: ADME, organism-based, Macaca fascicularis. Particulars: in vivo.
Data set [2] is described as follows: Half life in cynomolgus monkey at 0.125 mg/kg, iv. The settings on record: in vivo. Details: dose 0.125 mg/kg, route intravenous. Type of data set: ADME, organism-based, Macaca fascicularis.
The nature of data set [3]: Equilibrium solubility of the compound in fed simulated intestinal fluid at pH 2 to 10. The class given is physicochemical.
For data set [4], the target named is T1, Nuclear receptor subfamily 1 group I member 2 (Homo sapiens, UniProt O75469).
T1 sequence (O75469 whole entry): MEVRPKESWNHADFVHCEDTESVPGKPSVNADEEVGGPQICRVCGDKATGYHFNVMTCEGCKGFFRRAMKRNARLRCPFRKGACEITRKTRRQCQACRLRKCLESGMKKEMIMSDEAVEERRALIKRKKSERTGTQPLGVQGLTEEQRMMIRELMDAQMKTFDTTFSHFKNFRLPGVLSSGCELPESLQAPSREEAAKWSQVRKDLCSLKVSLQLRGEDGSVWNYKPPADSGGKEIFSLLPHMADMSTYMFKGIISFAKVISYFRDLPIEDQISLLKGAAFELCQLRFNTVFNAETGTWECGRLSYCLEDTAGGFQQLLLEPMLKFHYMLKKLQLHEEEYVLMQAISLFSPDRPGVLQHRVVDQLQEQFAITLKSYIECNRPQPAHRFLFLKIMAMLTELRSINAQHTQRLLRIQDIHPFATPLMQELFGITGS
Briefly: Activation of human PXR.

The nature of data set [5]: Cmax in Beagle dog at 0.5 mg/kg, po. The class given is ADME, organism-based, Canis lupus familiaris. Set-up: dose 0.5 mg/kg, route oral. Particulars: in vivo.
Data set [6] in a line: Equilibrium solubility of the compound in simulated gastric fluid at pH 2 to 10. The class given is physicochemical.
In another data set the target is Cytochrome P450 2C19 (Homo sapiens, UniProt P33261).
Data set [7] deals with Rattus norvegicus. As to the kind of experiment: Antiamnesic activity in po dosed assessed as inhibition of Scopolamine-induced amnesic deficit administered 3 hrs before Scopolamine challenge by step-down passive avoidance test. The class given is functional, organism-based. Particulars: Wistar.
Data set [8] concerns the target T2, Nuclear receptor subfamily 1 group I member 2 (Rattus norvegicus, UniProt Q9R1A7).
T2 sequence (Q9R1A7 whole entry): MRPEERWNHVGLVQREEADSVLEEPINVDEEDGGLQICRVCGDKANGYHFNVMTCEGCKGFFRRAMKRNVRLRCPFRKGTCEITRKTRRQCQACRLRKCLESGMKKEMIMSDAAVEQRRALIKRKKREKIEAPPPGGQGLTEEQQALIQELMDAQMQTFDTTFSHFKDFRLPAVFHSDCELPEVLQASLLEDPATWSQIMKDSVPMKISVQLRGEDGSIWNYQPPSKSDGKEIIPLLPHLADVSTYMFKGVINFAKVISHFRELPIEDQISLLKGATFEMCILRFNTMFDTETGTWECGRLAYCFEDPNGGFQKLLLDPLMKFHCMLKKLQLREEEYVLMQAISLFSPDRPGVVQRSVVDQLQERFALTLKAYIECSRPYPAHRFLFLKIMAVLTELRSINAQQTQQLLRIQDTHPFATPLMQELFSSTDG
As to the kind of experiment: Activation of rat PXR.

Data set [9] is described as follows: Plasma protein binding in rat at 1 ug/ml after 6 hrs by equilibrium dialysis method. Type of data set: ADME, cell-free. The settings on record: read-out: PPB (converted). For orientation: Equilibrium dialysis compares concentrations on both sides of a semipermeable membrane.
In data set [10] the target is Voltage-gated inwardly rectifying potassium channel KCNH2 (Homo sapiens, UniProt Q12809). As to the kind of experiment: Inhibition of human ERG.
The test system of data set [11] is Rattus norvegicus. Briefly: Liver blood flow in Sprague-Dawley rat at 1 mg/kg, iv and 3 mg/kg, po. Type of data set: ADME, organism-based. Particulars: in vivo.

Values after ≈ are worked out from the molar mass of the structure shown.

Chain of Cytochrome P450 2C19 (P33261 whole entry): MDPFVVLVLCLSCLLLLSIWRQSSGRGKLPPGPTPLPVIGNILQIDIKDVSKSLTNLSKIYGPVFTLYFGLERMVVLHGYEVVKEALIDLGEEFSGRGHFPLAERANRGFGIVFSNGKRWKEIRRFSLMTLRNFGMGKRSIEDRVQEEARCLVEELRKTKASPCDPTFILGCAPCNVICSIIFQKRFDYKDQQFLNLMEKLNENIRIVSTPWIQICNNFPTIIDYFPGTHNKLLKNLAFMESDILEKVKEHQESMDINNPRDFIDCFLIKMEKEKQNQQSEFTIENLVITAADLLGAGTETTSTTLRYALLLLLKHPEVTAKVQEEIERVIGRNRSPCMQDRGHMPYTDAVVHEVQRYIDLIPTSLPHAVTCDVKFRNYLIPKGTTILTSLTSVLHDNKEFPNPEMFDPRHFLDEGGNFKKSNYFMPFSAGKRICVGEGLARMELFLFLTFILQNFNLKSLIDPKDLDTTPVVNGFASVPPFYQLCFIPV
Chain of Voltage-gated inwardly rectifying potassium channel KCNH2 (Q12809 whole entry): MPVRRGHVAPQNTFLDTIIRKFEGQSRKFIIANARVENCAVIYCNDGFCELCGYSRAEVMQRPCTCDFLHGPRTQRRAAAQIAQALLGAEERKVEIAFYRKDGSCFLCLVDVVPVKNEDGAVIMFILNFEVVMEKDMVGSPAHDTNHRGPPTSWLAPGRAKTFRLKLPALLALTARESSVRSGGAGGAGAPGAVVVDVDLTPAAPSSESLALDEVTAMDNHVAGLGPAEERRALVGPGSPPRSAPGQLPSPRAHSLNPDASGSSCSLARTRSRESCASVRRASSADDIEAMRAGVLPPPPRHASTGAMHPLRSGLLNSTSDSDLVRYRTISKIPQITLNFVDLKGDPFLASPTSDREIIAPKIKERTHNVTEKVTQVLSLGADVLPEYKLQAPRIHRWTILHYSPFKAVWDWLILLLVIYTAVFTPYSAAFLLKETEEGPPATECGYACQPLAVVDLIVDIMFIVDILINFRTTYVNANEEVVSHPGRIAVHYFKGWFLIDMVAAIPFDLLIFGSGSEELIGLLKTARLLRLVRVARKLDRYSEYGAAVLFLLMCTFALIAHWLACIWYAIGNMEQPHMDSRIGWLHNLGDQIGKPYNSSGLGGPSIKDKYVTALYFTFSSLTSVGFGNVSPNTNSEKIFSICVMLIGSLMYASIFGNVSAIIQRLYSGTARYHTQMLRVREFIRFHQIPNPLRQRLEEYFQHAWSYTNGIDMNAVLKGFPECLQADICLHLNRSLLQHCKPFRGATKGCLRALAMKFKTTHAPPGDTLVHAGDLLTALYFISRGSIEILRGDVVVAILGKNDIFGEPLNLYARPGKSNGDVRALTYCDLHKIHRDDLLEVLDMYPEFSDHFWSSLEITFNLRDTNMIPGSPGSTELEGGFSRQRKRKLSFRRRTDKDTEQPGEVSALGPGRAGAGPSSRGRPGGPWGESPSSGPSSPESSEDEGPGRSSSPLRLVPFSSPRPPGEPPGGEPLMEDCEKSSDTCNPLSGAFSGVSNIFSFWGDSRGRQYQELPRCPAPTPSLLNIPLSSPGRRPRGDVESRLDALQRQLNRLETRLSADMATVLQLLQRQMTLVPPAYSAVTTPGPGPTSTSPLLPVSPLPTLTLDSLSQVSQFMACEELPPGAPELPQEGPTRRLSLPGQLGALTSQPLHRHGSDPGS
Description for Cytochrome P450 2C19: Inhibition of human CYP2C19 after 10 mins

For orientation: Tmax means the time at which the peak concentration occurs. As usually defined, the half-life is how long it takes for the measured level to halve. One may read the thermodynamic solubility as solubility found after equilibrating the solid with the medium. The Cmax is the peak of the concentration-time curve. By IC50 is commonly meant the concentration that inhibits the measured activity by half. Consider `CC(C)S(=O)(=O)N[C@H]1Cc2ccc(-c3ccc(F)nc3)cc2C1` [GSK-729327], for which the Tmax in data set [1] was 3 h. In addition, the LBF in the data set on Cynomolgus monkey came out at 3%; with Rattus norvegicus [11] it was 6%. The compound also had a half-life in [2] of 15 h. The thermodynamic solubility in data set [3] and in data set [6] was 100 µg/mL (≈ 299 µM) throughout. Also, the Activity result was “Not Active” in [4], “Dose-dependent effect” in the data set with Rattus norvegicus [7] and “Not Active” in [8]. Further, the Cmax in data set [5] is 116 ng/mL. Moreover, the IC50 on Cytochrome P450 2C19 was over 10 µM. Also, the fraction unbound at 6 h, 1 ug/ml in [9] is 0.133. In [10], the “inhibition (INH)” value was “Not Active”.
